In one experiment the target is T1, STAT6 (Homo sapiens, UniProt P42226).
T1 construct: stably transfected HaCaT keratinocyte cell line, which expresses NanoLuc luciferase reporter gene under the transcriptional control of the STAT6 responsive promoter; endogenous in cells; host or cells: HaCaT keratinocyte reporter cell line (stably transfected with a NanoLuc reporter)
T1 sequence (P42226 1-847): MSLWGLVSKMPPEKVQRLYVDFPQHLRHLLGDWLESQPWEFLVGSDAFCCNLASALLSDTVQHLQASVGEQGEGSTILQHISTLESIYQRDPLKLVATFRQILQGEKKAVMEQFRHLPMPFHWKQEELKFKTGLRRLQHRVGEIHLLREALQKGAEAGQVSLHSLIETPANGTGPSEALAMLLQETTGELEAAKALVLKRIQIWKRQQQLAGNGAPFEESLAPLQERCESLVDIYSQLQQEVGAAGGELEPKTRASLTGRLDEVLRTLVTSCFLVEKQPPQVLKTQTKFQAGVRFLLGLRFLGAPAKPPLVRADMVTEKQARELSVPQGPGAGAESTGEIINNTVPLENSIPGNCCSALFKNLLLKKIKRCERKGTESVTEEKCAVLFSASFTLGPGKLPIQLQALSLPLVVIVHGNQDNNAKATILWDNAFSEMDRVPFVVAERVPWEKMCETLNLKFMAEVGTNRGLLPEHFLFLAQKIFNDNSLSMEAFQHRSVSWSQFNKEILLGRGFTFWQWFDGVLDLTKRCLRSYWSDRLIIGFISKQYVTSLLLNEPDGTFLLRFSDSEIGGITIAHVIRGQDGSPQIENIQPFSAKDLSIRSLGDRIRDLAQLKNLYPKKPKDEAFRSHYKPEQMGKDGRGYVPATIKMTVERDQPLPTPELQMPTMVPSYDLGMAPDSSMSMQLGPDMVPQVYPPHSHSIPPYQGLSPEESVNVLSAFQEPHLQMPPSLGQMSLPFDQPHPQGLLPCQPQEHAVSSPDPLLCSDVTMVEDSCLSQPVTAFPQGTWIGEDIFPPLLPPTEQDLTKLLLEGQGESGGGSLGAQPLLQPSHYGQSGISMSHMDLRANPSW
Put plainly: STAT6 Reporter Luciferase Assay (IL-13 stimulated HaCaT keratinocyte NanoLuc reporter cells). The experiment is classed as cell-based. Particulars: read-out: Reporter EC50. In outline:
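Luminescence from a NanoLuc reporter driven by the STAT6-responsive IL-13Ra2 promoter in HaCaT keratinocytes serves as the read-out. Compounds are given 2 h before a 4 h stimulation with 0.12 nM IL-13.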

The subject of experiment [1] is CCL17 secretion in peripheral human whole blood. In words: Human Whole Blood (HWB) CCL17 TR-FRET Assay (IL-13 stimulated CCL17 secretion). Type of experiment: cell-based. In outline:
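TR-FRET sandwich immunoassay (665/615 nm ratio) read CCL17 in serum from heparinized whole blood after 16 h RT detection. Blood was exposed to compound for 2 h at 37 °C, then to 10 ng/mL IL-13 (final) for 48 h. IC50 from 11-point, 3-fold titrations in duplicate.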

[2] abbreviates: STAT6 NanoLuc luciferase reporter, IL-13 stimulated HaCaT keratinocyte cells.
Setting [3] is: inhibition of CCL17 secretion in human whole blood, 10 ng/mL IL13, 48 hours.
Setting [4] is: Homo sapiens, 48 h, inhibition of CCL17 secretion in human whole blood, 10 ng/mL IL13, 48 hours.
The mark [5] stands for this setting: IL-13 stimulated HaCaT STAT6 NanoLuc reporter cells.
Setting [6] is: human whole blood, IL-13 stimulated, 48 hours.
Where [7] appears, read: Homo sapiens, 48 h, human whole blood, IL-13 stimulated.

As usually defined, the EC50 is the concentration at which the effect is half-maximal. One may read the IC50 as the concentration needed to halve the response being measured. High values mean weaker potency, low ones greater potency.

Where two headings read alike, the source gives them in different places.

Turning to `CCC1Cc2c(c(C(=O)NCc3ccc(NC(=O)N(C)C)cc3)nn2CC)CN1c1ccc(C(=O)N(C)C)cn1` (single isomer, unassigned) [Example 118, rel-(R or S)-5-(5-(dimethylcarbamoyl)pyridin-2-yl)-N-(4-(3,3-dimethylureido)benzyl)-1,6-diethyl-4,5,6,7-tetrahydro-1H-pyrazolo[4,3-c]pyridine-3-carboxamide], the EC50 at STAT6 (setting [2]) is 0.025 µM. The IC50 in experiment [1] (setting [3]) was 0.116 µM.

Regarding `C[C@H]1CN(c2ccc(C(=O)N(C)C)cn2)Cc2c(C(=O)NCc3ccc(NC(=O)N(C)C)cc3)nn(C3CCC3)c21` (single isomer, unassigned) [Example 119], the EC50 at STAT6 (setting [2]) was 0.0003 µM. The same molecule came in with an IC50 in experiment [1] (setting [4]) of 0.004 µM.

In the case of `C[C@@H]1Cc2c(c(C(=O)NCc3ccc(NC(=O)N(C)C)cc3)nn2C)CN1c1ccc(-c2nccn2C)cn1` (single isomer, unassigned) [Example 122], the EC50 on STAT6 (setting [2]) was 0.024 µM. In addition, the midpoint of inhibition in experiment [1] (setting [4]), the IC50, lay at 0.9 µM.

`CC(C)n1nc(C(=O)NCc2ccc(-c3ncc[nH]3)cc2)c2c1C(C(F)(F)F)CN(c1ccc(C(=O)N(C)C)cn1)C2` (single isomer, unassigned) [Example 123, rel-(R or S)-N-(4-(1H-imidazol-2-yl)benzyl)-5-(5-(dimethylcarbamoyl)pyridin-2-yl)-1-isopropyl-7-(trifluoromethyl)-4,5,6,7-tetrahydro-1H-pyrazolo[4,3-c]pyridine-3-carboxamide]: the EC50 on STAT6 (setting [2]) amounted to 0.041 µM. The molecule further came in with a concentration for half-maximal inhibition (IC50) in experiment [1] (setting [3]) of 1.01 µM.

As for `CC(C)n1nc(C(=O)NCc2ccc(-c3ncc[nH]3)cc2)c2c1C(C(F)(F)F)CN(c1ccc(C(=O)N(C)C)cn1)C2` (single isomer, unassigned) [Example 124, rel-(R or S)-N-(4-(1H-imidazol-2-yl)benzyl)-5-(5-(dimethylcarbamoyl)pyridin-2-yl)-1-isopropyl-7-(trifluoromethyl)-4,5,6,7-tetrahydro-1H-pyrazolo[4,3-c]pyridine-3-carboxamide], at STAT6 (setting [2]), the EC50 worked out at 0.0003 µM. The molecule also yielded an IC50 in experiment [1] (setting [3]) of 0.005 µM.

Regarding `CC(C)n1nc(C(=O)NCc2ccc(NC(=O)N(C)C)cc2)c2c1[C@@H](C)CN(c1ccc(C(=O)N(C)C)cn1)C2` (single isomer, unassigned) [Example 128], the EC50 on STAT6 (setting [2]) came to 0.0003 µM. In experiment [1] (setting [4]), the IC50 stood at 0.003 µM.

Take `CCC1CN(c2ccc(C(=O)N(C)C)cn2)Cc2c(C(=O)NCc3ccc(NC(=O)N(C)C)cc3)nc(C)n21` (single isomer, unassigned) [Example 131, rel-(R or S)-7-(5-(dimethylcarbamoyl)pyridin-2-yl)-N-(4-(3,3-dimethylureido)benzyl)-5-ethyl-3-methyl-5,6,7,8-tetrahydroimidazo[1,5-a]pyrazine-1-carboxamide]: at STAT6 (setting [2]), the EC50 came to 0.103 µM. Further, the IC50 in experiment [1] (setting [4]) was found to be 0.256 µM.

In the case of `CN(C)C(=O)Nc1ccc(CNC(=O)c2nn(C3CCOC3)c3c2CN(c2ccc(C(=O)N(C)C)cn2)CC3)cc1` (single isomer, unassigned) [Example 190, rel-(R or S)-5-(5-(dimethylcarbamoyl)pyridin-2-yl)-N-(4-(3,3-dimethylureido)benzyl)-1-(tetrahydrofuran-3-yl)-4,5,6,7-tetrahydro-1H-pyrazolo[4,3-c]pyridine-3-carboxamide], at STAT6 (setting [5]), the EC50 was 0.02 µM. The IC50 in experiment [1] (setting [6]) came to 0.038 µM.

`CN(C)C(=O)Nc1ccc(CNC(=O)c2nn(C3CCOC3)c3c2CN(c2ccc(C(=O)N(C)C)cn2)CC3)cc1` (single isomer, unassigned) [Example 191, rel-(R or S)-5-(5-(dimethylcarbamoyl)pyridin-2-yl)-N-(4-(3,3-dimethylureido)benzyl)-1-(tetrahydrofuran-3-yl)-4,5,6,7-tetrahydro-1H-pyrazolo[4,3-c]pyridine-3-carboxamide]: the EC50 at STAT6 (setting [5]) stood at 0.032 µM. In experiment [1] (setting [6]), this molecule yielded an IC50 of 0.126 µM.

With `CC1CN(c2ccc(-c3nccn3C)cn2)Cc2c(C(=O)NCc3ccc(NC(=O)N(C)C)cc3)nn(C)c21` (single isomer, unassigned) [Example 203, rel-(R or S)-N-(4-(3,3-dimethylureido)benzyl)-1,7-dimethyl-5-(5-(1-methyl-1H-imidazol-2-yl)pyridin-2-yl)-4,5,6,7-tetrahydro-1H-pyrazolo[4,3-c]pyridine-3-carboxamide], on STAT6 (setting [5]), the EC50 was 0.001 µM. Further, in experiment [1] (setting [6]), the IC50 came to 0.016 µM.

As to `CC1CN(c2ccc(-c3nccn3C)cn2)Cc2c(C(=O)NCc3ccc(NC(=O)N(C)C)cc3)nn(C)c21` (single isomer, unassigned) [Example 204, rel-(R or S)-N-(4-(3,3-dimethylureido)benzyl)-1,7-dimethyl-5-(5-(1-methyl-1H-imidazol-2-yl)pyridin-2-yl)-4,5,6,7-tetrahydro-1H-pyrazolo[4,3-c]pyridine-3-carboxamide], the EC50 on STAT6 (setting [5]) stood at 0.016 µM. In addition, the IC50 in experiment [1] (setting [6]) was found to be 0.246 µM.

`CCn1nc(C(=O)NCc2ccc(NC(=O)N(C)C)cc2)c2c1[C@H]1CC[C@H]1N(c1ccc(C(=O)N(C)C)cn1)C2` (single isomer, unassigned) [Example 230]: the EC50 at STAT6 (setting [5]) was 0.014 µM. Besides, the IC50 in experiment [1] (setting [6]) was found to be 0.277 µM.

As for `CCn1nc(C(=O)NCc2ccc(NC(=O)N(C)C)cc2)c2c1[C@H]1CC[C@H]1N(c1ccc(C(=O)N(C)C)cn1)C2` (single isomer, unassigned) [Example 231], at STAT6 (setting [5]), the EC50 turned out to be 0.002 µM. In addition, in experiment [1] (setting [6]), inhibition was half-maximal at 0.023 µM (IC50).

On to `CCc1nc(C(=O)NCc2ccc(NC(=O)N(C)C)cc2)c2n1C(C)CN(c1ccc(C(=O)N(C)C)cn1)C2` (single isomer, unassigned) [Example 232, rel-(R or S)-7-(5-(dimethylcarbamoyl)pyridin-2-yl)-N-(4-(3,3-dimethylureido)benzyl)-3-ethyl-5-methyl-5,6,7,8-tetrahydroimidazo[1,5-a]pyrazine-1-carboxamide], for which the EC50 on STAT6 (setting [5]) was determined as 0.002 µM. Also, the IC50 in experiment [1] (setting [6]) was found to be 0.005 µM.

For `CCc1nc(C(=O)NCc2ccc(NC(=O)N(C)C)cc2)c2n1C(C)CN(c1ccc(C(=O)N(C)C)cn1)C2` (single isomer, unassigned) [Example 233, rel-(R or S)-7-(5-(dimethylcarbamoyl)pyridin-2-yl)-N-(4-(3,3-dimethylureido)benzyl)-3-ethyl-5-methyl-5,6,7,8-tetrahydroimidazo[1,5-a]pyrazine-1-carboxamide], the EC50 on STAT6 (setting [5]) was found to be 0.042 µM. Half-maximal inhibition in experiment [1] (setting [6]) (IC50) required 0.078 µM.

Turning to `CCC(C)n1nc(C(=O)NCc2ccc(NC(=O)N(C)C)cc2)c2c1CCN(c1ccc(C(=O)N(C)C)cn1)C2` (single isomer, unassigned) [Example 234, rel-(R or S)-1-(sec-butyl)-5-(5-(dimethylcarbamoyl)pyridin-2-yl)-N-(4-(3,3-dimethylureido)benzyl)-4,5,6,7-tetrahydro-1H-pyrazolo[4,3-c]pyridine-3-carboxamide], the EC50 at STAT6 (setting [5]) turned out to be 0.02 µM. This molecule also returned an IC50 in experiment [1] (setting [7]) of 0.08 µM.

As to `CCC(C)n1nc(C(=O)NCc2ccc(NC(=O)N(C)C)cc2)c2c1CCN(c1ccc(C(=O)N(C)C)cn1)C2` (single isomer, unassigned) [Example 235, rel-(R or S)-1-(sec-butyl)-5-(5-(dimethylcarbamoyl)pyridin-2-yl)-N-(4-(3,3-dimethylureido)benzyl)-4,5,6,7-tetrahydro-1H-pyrazolo[4,3-c]pyridine-3-carboxamide], the EC50 on STAT6 (setting [5]) amounted to 0.015 µM. For the same molecule, the IC50 in experiment [1] (setting [6]) was determined as 0.085 µM.

For the molecule `CC(C1CC1)n1nc(C(=O)NCc2ccc(NC(=O)N(C)C)cc2)c2c1CCN(c1ccc(C(=O)N(C)C)cn1)C2` (single isomer, unassigned) [Example 237, rel-(R or S)-1-(1-cyclopropylethyl)-5-(5-(dimethylcarbamoyl)pyridin-2-yl)-N-(4-(3,3-dimethylureido)benzyl)-4,5,6,7-tetrahydro-1H-pyrazolo[4,3-c]pyridine-3-carboxamide], the EC50 at STAT6 (setting [5]) was 0.007 µM. The molecule further yielded an IC50 in experiment [1] (setting [7]) of 0.083 µM.

The values are drawn from patent US20250320213A1, “Nitrogen-Containing Heterocyclic Compounds” (Pfizer Inc., priority 2024, published 2025).
